# Reference: BindingDB's records for doi:10.1021/jm00140a010 (1982)
# Counter-ions that a name gives are not always drawn.
# Biological target: Angiotensin-converting enzyme
# Assay: Concentration required to inhibit the activity of Angiotensin I converting enzyme by 50%
row,SMILES,IC50
1,CC(=O)NC(Cc1ccccc1)C(=O)CCC(=O)N1CCC[C@H]1C(=O)O (stereo not given in full) [1-(5-Acetylamino-4-oxo-6-phenyl-hexanoyl)-pyrrolidine-2-carboxylic acid],0.33 µM
2,NC(Cc1ccccc1)C(=O)CCC(=O)N1CCC[C@H]1C(=O)O (stereo not given in full) [1-(5-Amino-4-oxo-6-phenyl-hexanoyl)-pyrrolidine-2-carboxylic acid; hydrochloride],25 µM
3,O=C(NC(Cc1ccccc1)=C(CCC(=O)N1CCC[C@H]1C(=O)O)NO)c1ccccc1 [1-(5-Benzoylamino-4-hydroxyimino-6-phenyl-hexanoyl)-pyrrolidine-2-carboxylic acid],1.2 µM
4,NC(=O)[C@@H]1CCCN1C(=O)CCC(=O)C(Cc1ccccc1)NC(=O)c1ccccc1 (stereo not given in full) [1-(5-Benzoylamino-4-oxo-6-phenyl-hexanoyl)-pyrrolidine-2-carboxylic acid amide],0.15 µM
5,O=C(NC(Cc1cccnc1)C(=O)CCC(=O)N1CCC[C@H]1C(=O)OCc1ccccc1)c1ccccc1 (stereo not given in full) [1-(5-Benzoylamino-4-oxo-6-pyridin-3-yl-hexanoyl)-pyrrolidine-2-carboxylic acid benzyl ester],0.015 µM
6,O=C(NC(Cc1cccnc1)C(=O)CCC(=O)N1CCC[C@H]1C(=O)O)c1ccccc1 (stereo not given in full) [1-(5-Benzoylamino-4-oxo-6-pyridin-3-yl-hexanoyl)-pyrrolidine-2-carboxylic acid],0.0057 µM
7,CC(NC(=O)c1ccccc1)C(=O)CCC(=O)N1CCC[C@H]1C(=O)O (stereo not given in full) [1-(5-Benzoylamino-4-oxo-hexanoyl)-pyrrolidine-2-carboxylic acid],0.3 µM
8,O=C(NC(Cc1ccccc1)C(=O)CCC(=O)N1CCC[C@H]1C(=O)O)OCc1ccccc1 (stereo not given in full) [1-(5-Benzyloxycarbonylamino-4-oxo-6-phenyl-hexanoyl)-pyrrolidine-2-carboxylic acid],0.24 µM
9,O=C(NC(Cc1ccccc1)C(=O)CCCC(=O)N1CCC[C@H]1C(=O)O)c1ccccc1 (stereo not given in full) [1-(6-Benzoylamino-5-oxo-7-phenyl-heptanoyl)-pyrrolidine-2-carboxylic acid],0.042 µM
10,Cc1ccccc1C(=O)NC(Cc1ccccc1)C(=O)CCC(=O)N1CCC[C@H]1C(=O)OCc1ccccc1 (stereo not given in full) [1-[5-(2-Methyl-benzoylamino)-4-oxo-6-phenyl-hexanoyl]-pyrrolidine-2-carboxylic acid benzyl ester],1.6 µM
11,Cc1ccccc1C(=O)NC(Cc1ccccc1)C(=O)CCC(=O)N1CCC[C@H]1C(=O)O (stereo not given in full) [1-[5-(2-Methyl-benzoylamino)-4-oxo-6-phenyl-hexanoyl]-pyrrolidine-2-carboxylic acid],0.046 µM
12,"COc1ccc(CC(NC(=O)c2ccccc2)C(=O)CCC(=O)N2CCC[C@H]2C(=O)O)cc1OC (stereo not given in full) [1-[5-Benzoylamino-6-(3,4-dimethoxy-phenyl)-4-oxo-hexanoyl]-pyrrolidine-2-carboxylic acid]",0.0014 µM
13,O=C(NC(Cc1ccc(OCc2ccccc2)cc1)C(=O)CCC(=O)N1CCC[C@H]1C(=O)OCc1ccccc1)c1ccccc1 (stereo not given in full) [1-[5-Benzoylamino-6-(4-benzyloxy-phenyl)-4-oxo-hexanoyl]-pyrrolidine-2-carboxylic acid benzyl ester],0.086 µM
14,CC(C)(C)OC(=O)[C@@H]1CCCN1C(=O)CCC(=O)C(Cc1ccc(OCc2ccccc2)cc1)NC(=O)c1ccccc1 (stereo not given in full) [1-[5-Benzoylamino-6-(4-benzyloxy-phenyl)-4-oxo-hexanoyl]-pyrrolidine-2-carboxylic acid tert-butyl ester],8.6 µM
15,O=C(NC(Cc1ccc(OCc2ccccc2)cc1)C(=O)CCC(=O)N1CCC[C@H]1C(=O)O)c1ccccc1 (stereo not given in full) [1-[5-Benzoylamino-6-(4-benzyloxy-phenyl)-4-oxo-hexanoyl]-pyrrolidine-2-carboxylic acid],0.01 µM
16,O=C(NC(Cc1ccc(O)cc1)C(=O)CCC(=O)N1CCC[C@H]1C(=O)O)c1ccccc1 (stereo not given in full) [1-[5-Benzoylamino-6-(4-hydroxy-phenyl)-4-oxo-hexanoyl]-pyrrolidine-2-carboxylic acid],0.0047 µM
17,O=C(CCC(=O)N1CCC[C@H]1C(=O)O)C(Cc1ccccc1)NC(=O)C1CCCO1 (stereo not given in full) [1-{4-Oxo-6-phenyl-5-[(tetrahydro-furan-2-carbonyl)-amino]-hexanoyl}-pyrrolidine-2-carboxylic acid],0.02 µM
18,O=C(NC(Cc1ccccc1)C(=O)CCC(=O)N1CCC[C@H]1C(=O)O)c1ccco1 (stereo not given in full) [1-{5-[(Furan-2-carbonyl)-amino]-4-oxo-6-phenyl-hexanoyl}-pyrrolidine-2-carboxylic acid],0.0014 µM
19,O=C(CCC(=O)C(Cc1ccccc1)NC(=O)c1ccccc1)NC(Cc1ccccc1)C(=O)OCc1ccccc1 (stereo not given) [2-(5-Benzoylamino-4-oxo-6-phenyl-hexanoylamino)-3-phenyl-propionic acid benzyl ester],0.18 µM
20,O=C(CCC(=O)C(Cc1ccccc1)NC(=O)c1ccccc1)N[C@H](Cc1ccccc1)C(=O)O (stereo not given in full) [2-(5-Benzoylamino-4-oxo-6-phenyl-hexanoylamino)-3-phenyl-propionic acid],0.028 µM
